Assay results: ChEMBL document CHEMBL1144896 (2003)

How the values were obtained:
BJ [1] = experiment: Compound was tested for human telomerase reverse transcriptase-SEAP (hTERT-SEAP) activity in immortalized hTERT-BJI at 18 uM concentration; assay type: functional
NCI-H1299 [2] = experiment: hTERT-SEAP (Human telomerase reverse transcriptase-SEAP) activity in non-small cell lung cancer H1299 cell at 18 uM concentration and level of cell viability determined in MTT assay; assay type: functional
NCI-H1299 [3] = experiment: Compound was tested for human telomerase reverse transcriptase-SEAP (hTERT-SEAP) activity in non-small cell lung cancer H1299 cell at 1.8 uM concentration; assay type: functional
BJ [4] = experiment: Compound was tested for cytomegalovirus or (pPCMV-SEAP) activity in immortalized hTERT-BJ1 at 180 uM concentration; assay type: functional, Homo sapiens
BJ [5] = experiment: Compound was tested for human telomerase reverse transcriptase-SEAP (hTERT-SEAP) activity in immortalized hTERT-BJI at 180.0 uM concentration; assay type: functional
BJ [6] = experiment: pPCMV-SEAP (cytomegalovirus-SEAP) activity in immortalized hTERT-BJ1 at 18 uM concentration and level of cell viability determined in MTT assay; assay type: functional, Homo sapiens
BJ [7] = experiment: pPCMV-SEAP (cytomegalovirus-SEAP) activity in immortalized hTERT-BJ1 at 1.8 uM concentration and level of cell viability determined in MTT assay; assay type: functional, Homo sapiens
BJ [8] = experiment: hTERT-SEAP (Human telomerase reverse transcriptase-SEAP) activity in immortalized hTERT-BJI at 18 uM concentration and level of cell viability determined in MTT assay; assay type: functional
BJ [9] = experiment: Compound was tested for cytomegalovirus or (pPCMV-SEAP) activity in immortalized hTERT-BJ1 at 1.8 uM concentration; assay type: functional, Homo sapiens
NCI-H1299 [10] = experiment: hTERT-SEAP (Human telomerase reverse transcriptase-SEAP) activity in non-small cell lung cancer H1299 cell at 180.0 uM concentration and level of cell viability determined in MTT assay; assay type: functional
BJ [11] = experiment: Compound was tested for cytomegalovirus or (pPCMV-SEAP) activity in immortalized hTERT-BJ1 at 18 uM concentration; assay type: functional, Homo sapiens
NCI-H1299 [12] = experiment: Compound was tested for human telomerase reverse transcriptase-SEAP (hTERT-SEAP) activity in non-small cell lung cancer H1299 cell at 18 uM concentration; assay type: functional
BJ [13] = experiment: hTERT-SEAP (Human telomerase reverse transcriptase-SEAP) activity in immortalized hTERT-BJI at 180.0 uM concentration and level of cell viability determined in MTT assay; assay type: functional
NCI-H1299 [14] = experiment: Compound was tested for human telomerase reverse transcriptase-SEAP (hTERT-SEAP) activity in non-small cell lung cancer H1299 cell at 180.0 uM concentration; assay type: functional
NCI-H1299 [15] = experiment: hTERT-SEAP (Human telomerase reverse transcriptase-SEAP) activity in non-small cell lung cancer H1299 cell at 1.8 uM concentration and level of cell viability determined in MTT assay; assay type: functional
BJ [16] = experiment: pPCMV-SEAP (cytomegalovirus-SEAP) activity in immortalized hTERT-BJ1 at 180 uM concentration and level of cell viability determined in MTT assay; assay type: functional, Homo sapiens
NCI-H1299 [17] = experiment: Compound was tested for human telomerase reverse transcriptase-SEAP (hTERT-SEAP) activity in non-small cell lung cancer H1299 cell at 24 uM concentration; assay type: functional
BJ [18] = experiment: pPCMV-SEAP (cytomegalovirus-SEAP) activity in immortalized hTERT-BJ1 at 240 uM concentration and level of cell viability determined in MTT assay; assay type: functional, Homo sapiens
BJ [19] = experiment: pPCMV-SEAP (cytomegalovirus-SEAP) activity in immortalized hTERT-BJ1 at 24 uM concentration and level of cell viability determined in MTT assay; assay type: functional, Homo sapiens
BJ [20] = experiment: hTERT-SEAP (Human telomerase reverse transcriptase-SEAP) activity in immortalized hTERT-BJI at 240.0 uM concentration and level of cell viability determined in MTT assay; assay type: functional
BJ [21] = experiment: Compound was tested for cytomegalovirus or (pPCMV-SEAP) activity in immortalized hTERT-BJ1 at 24 uM concentration; assay type: functional, Homo sapiens
NCI-H1299 [22] = experiment: hTERT-SEAP (Human telomerase reverse transcriptase-SEAP) activity in non-small cell lung cancer H1299 cell at 2.4 uM concentration and level of cell viability determined in MTT assay; assay type: functional
NCI-H1299 [23] = experiment: hTERT-SEAP (Human telomerase reverse transcriptase-SEAP) activity in non-small cell lung cancer H1299 cell at 240.0 uM concentration and level of cell viability determined in MTT assay; assay type: functional
BJ [24] = experiment: Compound was tested for human telomerase reverse transcriptase-SEAP (hTERT-SEAP) activity in immortalized hTERT-BJI at 2.4 uM concentration; assay type: functional
BJ [25] = experiment: Compound was tested for cytomegalovirus or (pPCMV-SEAP) activity in immortalized hTERT-BJ1 at 240 uM concentration; assay type: functional, Homo sapiens
BJ [26] = experiment: Compound was tested for human telomerase reverse transcriptase-SEAP (hTERT-SEAP) activity in immortalized hTERT-BJI at 24 uM concentration; assay type: functional
NCI-H1299 [27] = experiment: Compound was tested for human telomerase reverse transcriptase-SEAP (hTERT-SEAP) activity in non-small cell lung cancer H1299 cell at 2.4 uM concentration; assay type: functional
NCI-H1299 [28] = experiment: hTERT-SEAP (Human telomerase reverse transcriptase-SEAP) activity in non-small cell lung cancer H1299 cell at 24 uM concentration and level of cell viability determined in MTT assay; assay type: functional
NCI-H1299 [29] = experiment: Compound was tested for human telomerase reverse transcriptase-SEAP (hTERT-SEAP) activity in non-small cell lung cancer H1299 cell at 240.0 uM concentration; assay type: functional
BJ [30] = experiment: hTERT-SEAP (Human telomerase reverse transcriptase-SEAP) activity in immortalized hTERT-BJI at 24 uM concentration and level of cell viability determined in MTT assay; assay type: functional
BJ [31] = experiment: Compound was tested for human telomerase reverse transcriptase-SEAP (hTERT-SEAP) activity in immortalized hTERT-BJI at 240.0 uM concentration; assay type: functional
BJ [32] = experiment: pPCMV-SEAP (cytomegalovirus-SEAP) activity in immortalized hTERT-BJ1 at 2.4 uM concentration and level of cell viability determined in MTT assay; assay type: functional, Homo sapiens
BJ [33] = experiment: Compound was tested for cytomegalovirus or (pPCMV-SEAP) activity in immortalized hTERT-BJ1 at 2.4 uM concentration; assay type: functional, Homo sapiens

Q: Which results are given for `O=C(Oc1cccc2c1C(=O)c1cccc(OC(=O)c3ccc(Cl)cc3Cl)c1C2=O)c1ccc(Cl)cc1Cl`?
A: Relative SEAP activity (BJ [1]): 150%; Relative viability (NCI-H1299 [2]): 103%; Relative SEAP activity (NCI-H1299 [3]): 100%; Relative SEAP activity (BJ [4]): 121%; Relative SEAP activity (BJ [5]): 160%; Relative viability (BJ [6]): 105%; Relative viability (BJ [7]): 105%; Relative viability (BJ [8]): 102%; Relative SEAP activity (BJ [9]): 99%; Relative viability (NCI-H1299 [10]): 77%; Relative SEAP activity (BJ [11]): 111%; Relative SEAP activity (NCI-H1299 [12]): 102%; Relative viability (BJ [13]): 96%; Relative SEAP activity (NCI-H1299 [14]): 96%; Relative viability (NCI-H1299 [15]): 108%; Relative viability (BJ [16]): 108%

Q: Which results are given for `CC(C)(C)C(=O)Oc1cccc2c1C(=O)c1cccc(OC(=O)C(C)(C)C)c1C2=O`?
A: Relative SEAP activity (NCI-H1299 [17]): 78%; Relative viability (BJ [18]): 103%; Relative viability (BJ [19]): 104%; Relative viability (BJ [20]): 100%; Relative SEAP activity (BJ [21]): 114%; Relative viability (NCI-H1299 [22]): 106%; Relative viability (NCI-H1299 [23]): 70%; Relative SEAP activity (BJ [24]): 147%; Relative SEAP activity (BJ [25]): 141%; Relative SEAP activity (BJ [26]): 165%; Relative SEAP activity (NCI-H1299 [27]): 105%; Relative viability (NCI-H1299 [28]): 97%; Relative SEAP activity (NCI-H1299 [29]): 80%; Relative viability (BJ [30]): 93%; Relative SEAP activity (BJ [31]): 141%; Relative viability (BJ [32]): 115%; Relative SEAP activity (BJ [33]): 102%
